{"source": "patent US6689803B2", "about": "“Compositions and methods for treating surgical adhesions” (Angiotech Pharmaceuticals, Inc., priority 1996, dated 2004)", "key": {"TR1 T-cell clones": {"tested_on": "TR1 T-cell clones", "experiment": "T cell response to antigenic stimulus (tritiated thymidine incorporation)", "format": "cell-based", "conditions": "micellar formulation; GP68-88 or conA; added at start or 24 hours after stimulation; 48 hours", "experimental": "Tritiated thymidine incorporation was determined as a measure of T-cell proliferation in response to peptide or conA stimulation."}, "synoviocytes": {"tested_on": "synoviocytes", "experiment": "3H-thymidine incorporation into synoviocytes", "format": "cell-based", "conditions": "6 or 24 hours", "experimental": "At these times, 1×10^−6 cpm of ^3H-thymidine was added to the cell culture and incubated for 2 hours at 37° C. The cells were placed through a cell harvester, washed through a filter, the filters were cut, and the amount of radiation contained in the filter sections determined. Once the amount of thymidine incorporated into the cells was ascertained, it was used to determine the rate of cell proliferation. This experiment was repeated three times and the data collated."}, "[1]": {"tested_on": "fibrous astrocytes (GFAP)", "experiment": "GFAP and astrocytes in brain, transgenic mouse model of demyelinating disease", "format": "in vivo", "conditions": "brain sections, transgenic mice", "quoted_text": "Three days following the tenth injection, the experimental study was terminated and the brain tissues processed for histological analysis. For light microscopy, tissues were fixed in formalin and embedded in paraffin. Sections were stained with anti-GFAP antibody (DACO), washed and then reacted with secondary antibody conjugated with HPP. The sections were stained for HPP and counter-stained with haematoxylin."}, "[2]": {"tested_on": "MDAY-D2 tumors on the CAM", "experiment": "Tumor angiogenesis: MDAY-D2 tumors on the CAM", "format": "in vivo, chick", "conditions": "20% paclitaxel-loaded thermopaste", "protocol": "Fertilized domestic chick embryos are incubated for 4 days prior to having their shells removed. The egg contents are emptied by removing the shell located around the airspace, severing the interior shell membrane, perforating the opposite end of the shell and allowing the egg contents to gently slide out from the blunted end. The contents are emptied into round-bottom sterilized glass bowls, covered with petri dish covers and incubated at 90% relative humidity and 3% carbon dioxide.\nMDAY-D2 cells (a murine lymphoid tumor) are injected into mice and allowed to grow into tumors weighing 0.5-1.0 g. The mice are sacrificed, the tumor sites wiped with alcohol, excised, placed in sterile tissue culture media, and diced into 1 mm pieces under a laminar flow hood. Prior to placing the dissected tumors onto the […] chick embryos, CAM surfaces are gently scraped with a 30 gauge needle to ensure tumor implantation. The tumors are then placed on the CAMs after 8 days of incubation (4 days after deshelling), and allowed to grow on the CAM for four days to establish a vascular supply. Four embryos are prepared utilizing this method, each embryo receiving 3 tumors. On day 12, each of the 3 tumors on the embyros received either 20% paclitaxel-loaded thermopaste, unloaded thermopaste, or no treatment. The treatments were continued for two days before the results were recorded.\nThe explanted MDAY-D2 tumors secrete angiogenic factors which induce the ingrowth of capillaries (derived from the CAM) into the tumor mass and allow it to continue to grow in size. Since all the vessels of the tumor are derived from the CAM, while all the tumor cells are derived from the explant, it is possible to assess the effect of therapeutic interventions on these two processes independently. This assay has been used to determine the effectiveness of paclitaxel-loaded thermopaste on: (a) inhibiting the vascularization of the tumor and (b) inhibiting the growth of the tumor cells themselves."}, "[3]": {"experiment": "In vitro release of paclitaxel from polymeric formulations", "format": "physicochemical", "conditions": "for paclitaxel released: 10 days in PBS", "protocol": "The tube was incubated at 37° C. with gentle rotational mixing. […] The supernatant (10 ml) was extracted with 1 ml methylene chloride. […] The injection volume was 20 μl and the flow rate was 1 ml/minute.\nAn equal volume of PBS was replaced in each tube to maintain sink conditions throughout the study.\nSampling daily (three sampling at the first day) to maintain the sink condition."}, "MS symptoms": {"tested_on": "MS symptoms", "experiment": "Demyelinating DM20 (ND4) transgenic mouse model of MS", "format": "in vivo", "parameters": "key to Seizures / Shaking / Hind Limb Paralysis / Head Tremors: 1+: slight but definite signs; 2+: increase in severity; 3+: signs worsened with limited movement; 4+: very severe signs with loss of motor control (moribund)", "conditions": "micellar paclitaxel 2.5 mg/kg s.c. 3 times per week, 7 injections", "text": "These transgenic mice contain 70 copies of the transgene DM20, a myelin proteolipid. Clinically, the animals appear normal up to 3 months of age. After 3 months, evidence of neurological pathology, such as seizures, shaking, hind limb mobility, unsteadiness of gait, limp tail, wobbly gait and reduction in the degree of activity, appear and progressively increase in severity until the animals die between 6 and 8 months of age.\nFor both of these sets of experiments, dosing was initiated at the clinical onset of disease (approximately 3 to 4 months of age).\nAnimals were injected with the first dose once the initial signs of MS had reached a score of 1+ for the symptom categories described. The clinical scores and body weight were determined on each injection day and continued three times a week until the end of the study period (6 months of age). Scoring was based on a 1+ to 4+ system, whereby 1+=slight but definite signs, 2+=increase in severity, 3+=signs worsened with limited movement and 4+=very severe signs with loss of motor control (moribund).\nThree additional transgenic mice were used as controls and received an equivalent dose of PBS. […] Furthermore, four normal mice were used as controls and administered equivalent volumes of PBS."}, "adhesion formation": {"tested_on": "adhesion formation", "experiment": "Rabbit uterine horn model of surgical adhesions", "format": "in vivo", "protocol": "New Zealand female white rabbits were anesthetized and a midline incision made through the skin and the abdominal wall. Both uterine horns were located and exteriorized. Using a French Catheter Scale, the diameter of each uterine horn was measured and recorded. Only those rabbits with uterine horns measuring size 8 to 16, inclusive, on the French scale were used. Using a number 10 scalpel blade, 5 cm lengths of each uterine horn, approximately 1 cm from the uterine bifurcation, were scraped, 40 times per side, until punctuate bleeding. Hemostasis was achieved by tamponade.\nTest agent (0.4 to 2.5 ml) was applied over the horns via an 18 gauge needle. Uterine horns were replaced into the pelvis and the abdominal incision closed.\nBody weights of the animals were recorded. The abdomen was opened and the surgical site inspected. Adhesions were graded by a blinded observer as follows:\nThe total length (cm) of each uterine horn involved with adhesions was estimated and recorded.\nAdhesions were grades as 0 (absent), 1.0 (filmy adhesions) and 2.0 (tenacious, requiring sharp dissection).\nThe degree of uterine convolution was recorded according to the following scale:\nNo convolution: Straight lengths of adherent or non-adherent horns which are clearly discerned.\nCompletely convoluted: It is impossible to discern uterine anatomy because the horn is completely entangled."}, "[4]": {"tested_on": "chick chorioallantoic membrane (CAM) vasculature", "conditions": "for CAM vasculature: 2-day exposure"}, "[5]": {"conditions": "transgenic mice, 6 months of age"}}, "note": "Like-named read-outs stand apart in the source and are kept apart here. Marks after values point to notes of the source that are not given here."}
{"smiles": "CC(=O)O[C@H]1C(=O)[C@@]2(C)[C@H]([C@H](OC(=O)c3ccccc3)[C@]3(O)C[C@H](OC(=O)[C@H](O)[C@@H](NC(=O)c4ccccc4)c4ccccc4)C(C)=C1C3(C)C)[C@]1(OC(C)=O)CO[C@@H]1C[C@@H]2O", "note": "[paclitaxel]", "values": [{"measurement": "concentration at which T-cell proliferation was (completely) inhibited", "setting": "TR1 T-cell clones", "value": 0.02, "unit": "µM"}, {"measurement": "inhibits incorporation of 3H-thymidine at concentrations as low as", "setting": "synoviocytes", "value": "10^−8 M"}, {"measurement": "number of fibrous astrocytes", "setting": "[1]", "value": "decreased significantly"}, {"measurement": "blood vessels in the immediate periphery of the tumor", "setting": "[2]; two days", "value": 14}, {"measurement": "small capillaries in the tumor mass", "setting": "[2]; two days", "value": "3-4"}, {"measurement": "tumor vascularity", "setting": "[2]; all 4 embryos", "value": "suppressing tumor vascularity"}, {"measurement": "paclitaxel released", "setting": "[3]; 5 mg of 30% loaded PLLA microspheres", "value": 400, "unit": "µg"}, {"measurement": "released fraction of total drug content", "setting": "[3]; 5% paclitaxel loaded PCL microspheres, after 21 days, PBS 37° C.", "value": "about 20%"}, {"measurement": "paclitaxel released", "setting": "[3]; 10% loaded PLLA microspheres", "value": 150, "unit": "µg"}, {"measurement": "released paclitaxel", "setting": "[3]; 20% paclitaxel loaded 0:100 PDLLA:PCL (PCL) paste, within 10 days", "value": 6, "unit": "%"}, {"measurement": "released paclitaxel", "setting": "[3]; 20% paclitaxel loaded 70:30 PDLLA:PCL paste, within 10 days", "value": 11, "unit": "%"}, {"measurement": "released paclitaxel", "setting": "[3]; 20% paclitaxel loaded 80:20 PDLLA:PCL paste, within 10 days", "value": 17, "unit": "%"}, {"measurement": "released paclitaxel", "setting": "[3]; 20% paclitaxel loaded 90:10 PDLLA:PCL paste, within 10 hours", "value": "25-35%"}, {"measurement": "released paclitaxel", "setting": "[3]; 20% paclitaxel loaded PDLLA-PEG-PDLLA cylinder, 20% PEG, 1 mm, 30 days", "value": 2, "unit": "%"}, {"measurement": "released paclitaxel", "setting": "[3]; 20% paclitaxel loaded PDLLA-PEG-PDLLA cylinder, 30% PEG, 0.65 mm, 30 days", "value": 26, "unit": "%"}, {"measurement": "released paclitaxel", "setting": "[3]; 20% paclitaxel loaded PDLLA-PEG-PDLLA cylinder, 30% PEG, 1 mm, 30 days, PBS albumin 37° C.", "value": 17, "unit": "%"}, {"measurement": "drug released", "setting": "[3]; paclitaxel-nylon microcapsules, after 72 hours", "value": "more than 95%"}, {"measurement": "Head Tremors", "setting": "MS symptoms; normal mice", "value": 0}, {"measurement": "Hind Limb Paralysis", "setting": "MS symptoms; normal mice", "value": 0}, {"measurement": "Seizures", "setting": "MS symptoms; normal mice", "value": 0}, {"measurement": "Shaking", "setting": "MS symptoms; normal mice", "value": 0}, {"measurement": "Weight Change", "setting": "MS symptoms; normal mice", "value": "−0-5%"}, {"measurement": "Weight Change", "setting": "MS symptoms; transgenic mice", "value": "+5-10%"}, {"measurement": "Head Tremors", "setting": "MS symptoms; [5]", "value": "1+"}, {"measurement": "Hind Limb Paralysis", "setting": "MS symptoms; [5]", "value": "1+"}, {"measurement": "Seizures", "setting": "MS symptoms; [5]", "value": "1+"}, {"measurement": "Shaking", "setting": "MS symptoms; [5]", "value": "1+"}, {"measurement": "Adhesion-Free: number of uterine horns free of adhesions/total", "setting": "adhesion formation; 0.1% in vehicle", "value": "0/20"}, {"measurement": "Convolution: number of uterine horns with no convolution/partial convolution/full convolution", "setting": "adhesion formation; 0.1% in vehicle", "value": "16/2/2†"}, {"measurement": "Extent: length of uterine horn with adhesions (± Standard Error of the Mean)", "setting": "adhesion formation; 0.1% in vehicle", "value": "2.925 (0.338)* cm"}, {"measurement": "Extent: length of uterine horn with adhesions (± Standard Error of the Mean)", "setting": "adhesion formation; 0.1% in vehicle, listed as Paclitaxel", "value": "2.925±0.338", "unit": "cm"}, {"measurement": "Adhesion-Free: number of uterine horns free of adhesions/total", "setting": "adhesion formation; 1% in vehicle", "value": "0/18"}, {"measurement": "Convolution: number of uterine horns with no convolution/partial convolution/full convolution", "setting": "adhesion formation; 1% in vehicle", "value": "18/0/0‡"}, {"measurement": "Extent: length of uterine horn with adhesions (± Standard Error of the Mean)", "setting": "adhesion formation; 1% in vehicle", "value": "2.028±0.374", "unit": "cm"}, {"measurement": "Extent: length of uterine horn with adhesions (± Standard Error of the Mean)", "setting": "adhesion formation; 1% in vehicle, listed as paclltaxel", "value": "2.028 (0.374)** cm"}, {"measurement": "CAM vasculature", "setting": "[4]; 5% paclitaxel-loaded PCL microspheres, 1 mg", "value": "marked vascular regression and zones which were devoid of a capillary network"}, {"measurement": "diameter of avascular areas", "setting": "[4]; 48 hour exposure to 10 μg paclitaxel per 10 ml of methylcellulose", "value": "approximately 6 mm"}, {"measurement": "avascular zones did not revascularize for", "setting": "[4]; after application", "value": "at least 7 days"}, {"measurement": "inhibition of angiogenesis occurs as early as", "setting": "[4]; after application", "value": 9, "unit": "h"}, {"measurement": "avascular gradient scale", "setting": "[4]; maximal avascular zone within 48 hours depending on concentration, methylcellulose disk", "value": 3}, {"measurement": "Inhibition/n", "setting": "[4]; micellar solution (10 ul), 10%", "value": "too toxic"}, {"measurement": "CAM vasculature", "setting": "[4]; paclitaxel-gelatin-PCL paste, 1 mg pieces", "value": "consistently showed vascular regression and zones which lacked a capillary network"}, {"measurement": "maximal avascular zone diameter", "setting": "[4]; within 48 hours depending on concentration, methylcellulose disk", "value": 6, "unit": "mm"}]}
